Assay [1] in a line: Inhibition of horseradish peroxidase catalytic activity by luminol-enhanced chemiluminescence assay. Also on record: species or system Armoracia rusticana.
Assay [2] can be described thus: DPPH radical scavenging activity. Type of assay: functional. In general terms: Loss of DPPH colour is used to gauge radical scavenging.

Usually IC50 stands for the concentration needed to halve the response being measured. As to `O=c1oc2ccc(O)cc2cc1-c1ccccc1O`, the figures for the IC50 in assay [1] and in assay [2] were 24.6 µM and 24.9 µM, respectively.

Consider `O=c1oc2ccc(O)cc2cc1-c1ccc(O)c(O)c1`, for which the IC50 was found to be 2.8 µM in assay [1] and 26.8 µM in assay [2].

Turning to `O=c1oc2cc(O)c(O)cc2cc1-c1ccc(O)c(O)c1`, the values for the IC50 in assay [1] and in assay [2] were 1.2 µM and 9.8 µM, respectively.

In the case of `O=c1oc2cc(O)c(O)cc2cc1-c1ccc2c(c1)OCO2`, the IC50 in assay [1] turned out to be 3.4 µM; in assay [2] it was 13.2 µM.

Turning to `CC(=O)Oc1ccc(-c2cc3cc(OC(C)=O)c(OC(C)=O)cc3oc2=O)cc1OC(C)=O`, the IC50 in assay [1] was 28.2 µM.

The record behind these values is ChEMBL document CHEMBL1142884, “Inhibition of horseradish peroxidase catalytic activity by new 3-phenylcoumarin derivatives: synthesis and structure-activity relationships” (Bioorg Med Chem, 2007).
